Consider five compounds from US20230203523A1, “HPPD INHIBITOR HERBICIDE TOLERANT PLANT” (priority 2021, published 2023).

Holding throughout (assay type): in vivo, Sorghum bicolor
Test [1] relates to grain sorghum genotype BV10-11924 (mutant ADV-HT2). As to the kind of experiment: Field phytotoxicity trial, aerial biomass as % of untreated control, mutant ADV-HT2 sorghum. The settings on record: for Biomass % Control: field. The protocol:
(§1) To determine the spectrum of tolerance to different HPPD herbicide site of action (SOA) active ingredients (AI) in a sorghum HPPD tolerant inbred BV10-11924 (ADV-HT2) following methodology was used.
(§2) Two grain sorghum genotypes were evaluated under field conditions with herbicide pre-emergency (PRE) and post-emergency (POE) treatments of 6 active ingredients of HPPD SOA herbicide families for sorghum crop phytotoxicity trials.
(§3) The experiment design was a split-plot design with 2 replicates where: Herbicide treatment was defined as Main plot, and Genotype as split plot. Plot size were 10 square meters each, this is 4 row/plot, 5 meters length and 0.52 meters between rows.
(§4) Both genotypes (Table 1) were sown in the Advanta R&D Station in Venado Tuerto, Argentina using an experimental planter. Wild type BV94-4045 (line used for mutagenesis in example 1) is a maintainer elite inbred line Advanta's proprietary.
(§5) All herbicide treatments (Table 2) were applied same day of sowing date for herbicide PRE treatments, and 15 days after sowing for POE treatments using an experimental sprayer in optimal weather conditions. The herbicides rates were defined as: 1×, 2× and 4×. Along with the herbicides, there were applied specific surfactant when they were recommended by the supplier for each herbicide. In all cases, 1× rate was defined based on the recommended dose in herbicide label. […]
(§6) For Aerial Biomass (Biomass) measurements, all plants from two central rows each plot were harvested by cutting them at ground level and weighted before and after drying at 60° C. for 48 h in order to determine the shoot dry mass reduction of each treatment. All data were standardized using the Aerial Biomass average as the % of Control plots. For the calculation as the percentage of its respective untreated control was used the following function:
(§7) Biomass % Control=(Biomassgh/Biomassg Control)*100
(§8) where “Biomass % Control” is the Aerial Biomass expressed as percent of each genotype in the Control plot without any herbicide application (Table 3); “Biomassgh” is the Aerial Biomass is the mean for each genotype*herbicide treatment combination and “Biomassg Control” is the Aerial Biomass mean for each genotype in the treatment CONTROL (untreated).

The subject of test [2] is grain sorghum genotype BV94-4045 (susceptible wild type). As to the kind of experiment: Field phytotoxicity trial, aerial biomass as % of untreated control, wild type sorghum. Conditions: BV94-4045 wild type; for Biomass % Control: field; for phytotoxicity / biomass accumulation (in words): POE, 20 days after herbicide application, 4×. As to the method: as §1, §2, §3, §4, §5, §6, §7, §8

For test [3], the system named is M3 sorghum plants of furrow VT09-8800 (BV94-4045EMS1-256-2, ADV-HT2). The test is described as follows: Herbicide spray selection of EMS-mutagenised M3 sorghum progeny. Conditions: sprayed with 33.6 ml active ingredient/ha; six M3 plants of furrow VT09-8800. As to the method:
In order to obtain herbicide-tolerant plants, endogamic sorghum (Sorghum bicolor) line BV94-4045 (Advanta proprietary elite line) seeds were treated with an aqueous solution of ethyl methanesulfonate (EMS). Treated seeds were planted and self-pollinated for advancing generation. Eight hundred nighty five M1 plants were selected, and two seeds of each plant were planted in a nursery, thereby obtaining a total of 1790 M2 plants. Pollen from both plants of each pair were collected, and the bulk was used for pollinating both plants of the pair. A bulk of M3 seeds from each pair was obtained from the 895 pollinated M2 pairs of plants. A total of 895 furrows were planted with the M3 progeny. Fifty plants from each M3 furrow were sprayed with 33.6 ml active ingredient /ha of topramezone. […] The genealogy of the resistant plants from the furrows was identified and they were designated BV94-4045EMS1-256-2 (hereinafter referred to as ADV-HT2). Herbicide tolerant M7 mutant plants and seeds selected from the original ADV-HT2 mutant, designated as: Material ID=VT10-11924-1-BK and Inbred Code=BV10-11924, were obtained and deposited with the NCIMB collection with Access No. NCIMB 43919 under the terms of the Budapest Treaty,
Thirty-two thousand pre-germinated sorghum seeds from endogamic line BV94-4045 were dipped into an aqueous solution of 0.05% v/v ethyl methanesulfonate (EMS) for 16 hours. […]

Setting [4] is: PRE application (day of sowing), 1X = label recommended rate.
Where [5] appears, read: PRE, 1× rate, 20 days after the application.
The mark [6] stands for this setting: POE application (15 days after sowing), 1X = label recommended rate.
The mark [7] stands for this setting: POE, 20 days after herbicide application, rates 1×, 2×, and 4×.

Consider `COCCOCc1nc(C(F)(F)F)ccc1C(=O)C1=C(O)C2CCC(C2)C1=O` (stereo not drawn) [BYC, BICYCLOPIRONA], for which the “Biomass % Control” value in test [1] (setting [4]) is given as 127%; in test [1] (PRE application, 2X label rate) it was 46%; in test [1] (PRE application, 4X label rate), 15%; in test [2] (setting [4]), 65%; in test [2] (PRE application, 2X label rate) it was 10%; in test [2] (PRE application, 4X label rate), 1%. For the same compound, in test [1] (setting [5]), the “phytotoxicity / biomass accumulation (in words)” value is reported as “no significative reduction in biomass accumulation”.
With `CS(=O)(=O)c1cc(C(F)(F)F)ccc1C(=O)c1cnoc1C1CC1` [ISO, ISOXAFLUTOLE], the “Biomass % Control” value is listed as 84% in test [1] (setting [4]); 68% in test [1] (PRE application, 2X label rate); 38% in test [1] (PRE application, 4X label rate); 63% in test [2] (setting [4]); 28% in test [2] (PRE application, 2X label rate); 10% in test [2] (PRE application, 4X label rate). Besides, the “phytotoxicity / biomass accumulation (in words)” value in test [1] (setting [5]) is on record as “no significative reduction in biomass accumulation”.
For `CS(=O)(=O)c1ccc(C(=O)C2C(=O)CCCC2=O)c([N+](=O)[O-])c1` [MES, MESOTRIONE], the “Biomass % Control” value worked out at 146% in test [1] (setting [6]); 106% in test [1] (POE application, 2X label rate); 84% in test [1] (POE application, 4X label rate); 108% in test [2] (setting [6]); 32% in test [2] (POE application, 2X label rate); 13% in test [2] (POE application, 4X label rate). In addition, the “phytotoxicity / biomass accumulation (in words)” value in test [1] (setting [7]) is recorded as “tolerant without phytotoxicity nor reduction in the biomass accumulation”; in test [2] (rates 2×), “significant reduction in the biomass accumulation”.
Consider `CCn1ncc(C(=O)c2ccc(S(C)(=O)=O)c(OCCOC)c2C)c1OC(C)OC(=O)OC` (stereo not drawn) [TOL, TOLPYRALATE], for which the “Biomass % Control” value in test [1] (setting [6]) is given as 117%; in test [1] (POE application, 2X label rate), 92%; in test [1] (POE application, 4X label rate), 127%; in test [2] (setting [6]), 76%; in test [2] (POE application, 2X label rate) it was 60%; in test [2] (POE application, 4X label rate), 64%. In addition, the “phytotoxicity / biomass accumulation (in words)” value is reported as “tolerant without phytotoxicity nor reduction in the biomass accumulation” in test [1] (setting [7]) and “significant reduction in the biomass accumulation” in test [2] (rates 1×, 2×).
Consider `Cc1c(C(=O)c2cnn(C)c2O)ccc(S(C)(=O)=O)c1C1=NOCC1` [TOP, TOPRAMEZONE], for which the “Biomass % Control” value in test [1] (setting [6]) amounted to 126%; in test [1] (POE application, 2X label rate), 107%; in test [1] (POE application, 4X label rate) it was 117%; in test [2] (setting [6]) it was 77%; in test [2] (POE application, 2X label rate), 51%; in test [2] (POE application, 4X label rate) it was 39%. Besides, the “phytotoxicity / biomass accumulation (in words)” value in test [1] (setting [7]) is given as “tolerant without phytotoxicity nor reduction in the biomass accumulation”; in test [2] (rates 1×, 2×), “significant reduction in the biomass accumulation”. In addition, the “plant growth and symptoms after treatment with herbicide (in words)” value in test [3] is “normal growth and absence of symptoms”.
